# Laboratory results as given in ChEMBL document CHEMBL1129712, “Synthesis and biological activities of camphor-based non-peptide growth hormone secretagogues” (Bioorg Med Chem Lett, 1996).
# Species: Rattus norvegicus
# Experiment: Evaluated for intrinsic GH secretory potency as half maximal release of GH in the rat pituitary cell assay.
# Type: functional
# Settings: Pituitary gland cell
row,Structure (SMILES),EC50
1,CC1(C)C2CCC1(CS(=O)(=O)N1CCC3(CCc4ccccc43)CC1)C(NC(=O)C1CCNCC1)C2 (stereo not given),9500 nM
2,CC1(C)C2CCC1(CS(=O)(=O)N1CCC3(CCc4ccccc43)CC1)C(NC(=O)C1CCCN(CCO)C1)C2 (stereo not given),300 nM
3,Cc1ccccc1N1CCN(S(=O)(=O)CC23CCC(CC2NC(=O)CC(C)(C)N)C3(C)C)CC1 (stereo not given),> 10000 nM
4,Cc1ccccc1N1CCN(S(=O)(=O)CC23CCC(CC2NC(=O)[C@@H]2CCCNC2)C3(C)C)CC1 (stereo not given in full),135 nM
5,CC1(C)C2CCC1(CS(=O)(=O)N1CCC3(CCc4ccccc43)CC1)C(NC(=O)[C@H]1CCCNC1)C2 (stereo not given in full),> 1000 nM
6,C[C@@H](O)CN1CCC[C@@H](C(=O)NC2CC3CCC2(CS(=O)(=O)N2CCC4(CCc5ccccc54)CC2)C3(C)C)C1 (stereo not given in full),90 nM
7,Cc1ccccc1N1CCN(S(=O)(=O)CC23CCC(CC2NC(=O)[C@H]2CCCNC2)C3(C)C)CC1 (stereo not given in full),> 5000 nM
8,CC1(C)C2CCC1(CS(=O)(=O)N1CCC3(CCc4ccccc43)CC1)C(NC(=O)[C@@H]1CCCN(C[C@H](O)CO)C1)C2 (stereo not given in full),800 nM
9,CC(C)(N)CC(=O)NC1CC2CCC1(CS(=O)(=O)N1CCC3(CCc4ccccc43)CC1)C2(C)C (stereo not given),> 10000 nM
10,CC1(C)C2CCC1(CS(=O)(=O)N1CCC3(CCc4ccccc43)CC1)C(NC(=O)C1CCCCN1)C2 (stereo not given),> 10000 nM
11,CC1(C)C2CCC1(CS(=O)(=O)N1CCC3(CCc4ccccc43)CC1)C(NC(=O)C1CN3CCC1CC3)C2 (stereo not given),> 10000 nM
12,CC(C)(N)C(=O)NC1CC2CCC1(CS(=O)(=O)N1CCC3(CCc4ccccc43)CC1)C2(C)C (stereo not given),> 10000 nM
13,CC(C)(C)OC(=O)N1CCCC(C(=O)NC2CC3CCC2(CS(=O)(=O)N2CCC4(CCc5ccccc54)CC2)C3(C)C)C1 (stereo not given),> 25000 nM
14,CC1(C)C2CCC1(CS(=O)(=O)N1CCC3(CCc4ccccc43)CC1)C(NC(=O)[C@@H]1CCCNC1)C2 (stereo partly drawn) [L-162425],140 nM
15,CC1(C)C2CCC1(CS(=O)(=O)N1CCC3(CCc4ccccc43)CC1)C(NC(=O)C1CCCNC1)C2 [L-368112],300 nM
